Assay results published in patent publication US11324738B2, “Muscarinic agonists” (Heptares Therapeutics Limited, priority 2015, dated 2022).

Tests used:
Format in all cases: cell-based
[1] = target: T1, human muscarinic M1 receptor (Homo sapiens, UniProt P11229); test: Alphascreen Surefire phospho-ERK1/2 functional assay, CHO cells expressing M1; settings: for Emax: CHO, read-out: % Emax cf. ACh, M1; for EC50: agonist, CHO cells, phospho-ERK1/2, read-out: pEC50 M1 (converted)
T1 construct: expressed in transfected cells
T1 sequence (P11229 1-460): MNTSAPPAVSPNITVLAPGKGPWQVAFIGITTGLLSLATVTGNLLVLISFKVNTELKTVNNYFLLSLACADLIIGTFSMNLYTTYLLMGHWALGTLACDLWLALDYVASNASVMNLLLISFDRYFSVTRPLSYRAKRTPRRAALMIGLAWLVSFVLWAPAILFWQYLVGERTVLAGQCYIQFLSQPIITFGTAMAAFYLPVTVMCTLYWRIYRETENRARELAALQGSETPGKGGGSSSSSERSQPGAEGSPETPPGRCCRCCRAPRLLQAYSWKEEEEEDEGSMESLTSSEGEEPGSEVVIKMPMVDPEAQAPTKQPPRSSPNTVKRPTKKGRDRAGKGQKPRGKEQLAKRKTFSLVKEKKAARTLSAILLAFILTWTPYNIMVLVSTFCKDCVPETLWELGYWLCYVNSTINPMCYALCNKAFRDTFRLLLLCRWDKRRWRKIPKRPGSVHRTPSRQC
Method: (§1) ERK1/2 phosphorylation is a downstream consequence of both Gq/11 and Gi/o protein coupled receptor activation, making it highly suitable for the assessment of M1, M3 (Gq/11 coupled) and M2, M4 receptors (Gi/o coupled), rather than using different assay formats for different receptor subtypes. CHO cells stably expressing the human muscarinic M1, M2, M3 or M4 receptor were plated (25K/well) onto 96-well tissue culture plates in MEM-alpha+10% dialysed FBS. Once adhered, cells were serum-starved overnight. Agonist stimulation was performed by the addition of 5 μL agonist to the cells for 5 min (37° C.). Media was removed and 50 μL of lysis buffer added. After 15 min, a 4 μL sample was transferred to 384-well plate and 7 μL of detection mixture added.

[2] = target: T2, human muscarinic M2 receptor (Homo sapiens, UniProt P08172); test: Alphascreen Surefire phospho-ERK1/2 functional assay, CHO cells expressing M2; settings: for Emax: CHO, read-out: % Emax cf. ACh, M2; for EC50: agonist, CHO cells, phospho-ERK1/2, read-out: pEC50 M2 (converted)
T2 construct: expressed in transfected cells
T2 sequence (P08172 1-466): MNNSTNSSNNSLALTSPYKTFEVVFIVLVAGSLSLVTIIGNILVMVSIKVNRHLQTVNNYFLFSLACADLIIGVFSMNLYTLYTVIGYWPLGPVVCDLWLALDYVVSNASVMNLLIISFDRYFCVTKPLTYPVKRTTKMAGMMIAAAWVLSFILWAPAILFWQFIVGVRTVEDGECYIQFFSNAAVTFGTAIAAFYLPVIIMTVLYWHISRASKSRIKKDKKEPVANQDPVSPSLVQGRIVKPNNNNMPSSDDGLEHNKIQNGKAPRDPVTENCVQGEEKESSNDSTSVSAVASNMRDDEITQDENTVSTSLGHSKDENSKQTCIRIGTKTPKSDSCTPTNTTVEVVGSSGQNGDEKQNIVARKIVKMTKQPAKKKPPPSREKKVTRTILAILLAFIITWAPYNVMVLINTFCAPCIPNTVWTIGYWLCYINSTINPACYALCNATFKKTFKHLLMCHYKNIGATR
Method: as §1

[3] = target: T3, human muscarinic M3 receptor (Homo sapiens, UniProt P20309); test: Alphascreen Surefire phospho-ERK1/2 functional assay, CHO cells expressing M3; settings: for Emax: CHO, read-out: % Emax cf. ACh, M3; for EC50: agonist, CHO cells, phospho-ERK1/2, read-out: pEC50 M3 (converted)
T3 construct: expressed in transfected cells
T3 sequence (P20309 whole entry): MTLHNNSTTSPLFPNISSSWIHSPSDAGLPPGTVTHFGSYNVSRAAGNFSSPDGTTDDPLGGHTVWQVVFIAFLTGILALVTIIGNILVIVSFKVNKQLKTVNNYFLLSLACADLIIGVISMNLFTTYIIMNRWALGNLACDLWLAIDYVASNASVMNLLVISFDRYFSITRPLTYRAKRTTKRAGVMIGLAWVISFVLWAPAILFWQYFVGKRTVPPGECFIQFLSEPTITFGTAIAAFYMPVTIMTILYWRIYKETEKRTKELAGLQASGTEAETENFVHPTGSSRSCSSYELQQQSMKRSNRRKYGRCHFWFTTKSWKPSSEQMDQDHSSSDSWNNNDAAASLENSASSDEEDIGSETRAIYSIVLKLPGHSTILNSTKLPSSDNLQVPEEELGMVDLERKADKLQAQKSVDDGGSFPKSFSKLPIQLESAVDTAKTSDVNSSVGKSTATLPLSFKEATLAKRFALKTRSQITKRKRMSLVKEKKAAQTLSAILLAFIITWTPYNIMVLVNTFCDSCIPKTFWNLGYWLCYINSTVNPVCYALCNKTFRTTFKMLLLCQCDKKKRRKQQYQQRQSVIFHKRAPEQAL
Method: as §1

[4] = target: T4, human muscarinic M4 receptor (Homo sapiens, UniProt P08173); test: Alphascreen Surefire phospho-ERK1/2 functional assay, CHO cells expressing M4; settings: for Emax: CHO, read-out: % Emax cf. ACh, M4; for EC50: agonist, CHO cells, phospho-ERK1/2, read-out: pEC50 M4 (converted)
T4 construct: expressed in transfected cells
T4 sequence (P08173 1-479): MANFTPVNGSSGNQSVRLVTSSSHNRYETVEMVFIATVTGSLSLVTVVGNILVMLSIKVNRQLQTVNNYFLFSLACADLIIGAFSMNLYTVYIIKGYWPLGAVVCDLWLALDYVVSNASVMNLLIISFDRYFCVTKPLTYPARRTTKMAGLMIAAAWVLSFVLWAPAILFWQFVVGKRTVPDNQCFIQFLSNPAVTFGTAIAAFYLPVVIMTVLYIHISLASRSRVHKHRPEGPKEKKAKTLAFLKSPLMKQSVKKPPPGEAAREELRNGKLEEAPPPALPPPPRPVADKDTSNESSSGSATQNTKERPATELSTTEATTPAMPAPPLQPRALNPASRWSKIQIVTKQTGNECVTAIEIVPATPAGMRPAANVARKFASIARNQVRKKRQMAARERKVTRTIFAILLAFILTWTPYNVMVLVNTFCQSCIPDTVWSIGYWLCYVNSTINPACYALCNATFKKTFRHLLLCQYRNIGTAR
Method: as §1

SMILES | Emax [1] [%] | EC50 [1] [nM] | Emax [2] [%] | EC50 [2] [µM] | Emax [3] [%] | EC50 [3] [µM] | Emax [4] [%] | EC50 [4] [nM]
CCOC(=O)N1CC2(CC(N3CCC(N4CCC[C@@H]4c4cnco4)CC3)C2)C1 [Example 1-6] | 67 | 631 | 4 | > 20 | 16 | > 20 | 105 | 12.6
CCOC(=O)N1CC2(CC(N3CCC(N4CCC[C@@H]4c4cn(C)c(=O)o4)CC3)C2)C1 [Example 1-7, Ethyl 6-{4-[(2R)-2-(3-methyl-2-oxo-2,3-dihydro-1 ,3-oxazol-5yl)pyrrolidin-1-yl]piperidin-1-yl}-2-azaspiro[3.3]heptane-2-carboxylate] | 12 | > 20000 | 10 | > 20 | 6 | > 20 | 49 | 39.8
CCOC(=O)N1CC2(CC(N3CCC(N4CC(F)(F)C[C@@H]4CO)CC3)C2)C1 [Example 1-12, Ethyl 6-{4-[(2R)-4,4-difluoro-2-(hydroxymethyl)pyrrolidin-1-yl]piperidin-1-yl}-2-azaspiro[3.3]heptane-2-carboxylate] | 63 | 251 | 7 | > 20 | 11 | > 20 | 88 | 31.6
